Like-named read-outs stand apart in the source and are kept apart here. Values belong to the compound of their own block, whether it stands above or below them.
Assays:
[1] = from C=CC[C@H](NC(=O)OC(C)(C)C)c1cc(-c2c(NC(=O)C(C=C)C(C)C)cnn2C)ccn1; rcm bond; 12-membered ring; Grubbs II (40 mol%); DCE; 36.7 mM; 120.0 °C
[2] = rcm bond, 12-membered ring
[3] = target: T1, purified human Factor XIa (Homo sapiens, UniProt P03951); assay: Factor XIa inhibition assay, chromogenic substrate S-2366 (Ki); type: biochemical
T1 construct: purchased Haematologic Technologies
Method in brief: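 Purified human FXIa (25-200 pM final) with S-2366 (0.0002-0.001 M) in 50 mM HEPES pH 7.4, 145 mM NaCl, 5 mM KCl, 0.1% PEG 8000. Velocities of absorbance change measured over 20-180 min with inhibitor present; Ki calculated for competitive inhibition from rates or IC50 via Ki=IC50/(1+S/Km).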

[4] = target: T2, purified human plasma kallikrein (Homo sapiens, UniProt P03952); assay: Plasma kallikrein inhibition assay, chromogenic substrate S-2302 (Ki); type: biochemical
T2 construct: Plasma prekallikrein is a zymogen of a trypsin-like serine protease; purchased Enzyme Research Laboratories
Method in brief: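 Purified human plasma kallikrein (200 pM final) with chromogenic substrate S-2302 at 0.00008-0.0004 M in 0.1 M sodium phosphate pH 7.5, 0.1-0.2 M NaCl, 0.5% PEG 8000. Velocities measured over 20-180 min with and without inhibitor; Ki derived assuming competitive inhibition, e.g. Ki=IC50/(1+S/Km).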

factor XIa = factor XIa (Homo sapiens, UniProt P03951); conditions: value taken from WO 2014/022767, Table 1, page 89; cited from earlier work
factor XIa, sequence (P03951 388-625 limits assumed): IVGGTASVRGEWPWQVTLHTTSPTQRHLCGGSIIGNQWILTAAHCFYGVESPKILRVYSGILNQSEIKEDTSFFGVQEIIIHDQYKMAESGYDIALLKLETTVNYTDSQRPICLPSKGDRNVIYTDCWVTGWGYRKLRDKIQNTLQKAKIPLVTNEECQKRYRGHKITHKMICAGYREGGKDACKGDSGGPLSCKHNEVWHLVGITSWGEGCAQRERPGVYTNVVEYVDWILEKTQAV
factor XIa, sequence (P03951 19-387 partner limits assumed): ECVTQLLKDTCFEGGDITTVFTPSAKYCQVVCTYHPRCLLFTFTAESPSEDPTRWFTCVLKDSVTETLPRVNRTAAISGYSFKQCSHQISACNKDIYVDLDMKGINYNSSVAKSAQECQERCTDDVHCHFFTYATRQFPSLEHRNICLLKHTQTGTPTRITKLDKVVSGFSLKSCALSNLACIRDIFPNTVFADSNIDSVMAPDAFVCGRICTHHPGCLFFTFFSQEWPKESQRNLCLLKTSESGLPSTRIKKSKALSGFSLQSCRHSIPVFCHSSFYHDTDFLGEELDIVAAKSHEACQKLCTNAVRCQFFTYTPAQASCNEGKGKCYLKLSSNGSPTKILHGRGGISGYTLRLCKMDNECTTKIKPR

T2 sequence (P03952 391-638 limits assumed): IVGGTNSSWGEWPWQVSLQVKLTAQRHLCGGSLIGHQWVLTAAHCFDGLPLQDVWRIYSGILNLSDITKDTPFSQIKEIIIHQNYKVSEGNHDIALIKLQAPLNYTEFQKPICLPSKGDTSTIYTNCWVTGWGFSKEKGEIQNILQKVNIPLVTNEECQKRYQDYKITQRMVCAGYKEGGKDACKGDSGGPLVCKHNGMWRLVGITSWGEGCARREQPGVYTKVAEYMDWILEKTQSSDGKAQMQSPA
T2 sequence (P03952 20-390 partner limits assumed): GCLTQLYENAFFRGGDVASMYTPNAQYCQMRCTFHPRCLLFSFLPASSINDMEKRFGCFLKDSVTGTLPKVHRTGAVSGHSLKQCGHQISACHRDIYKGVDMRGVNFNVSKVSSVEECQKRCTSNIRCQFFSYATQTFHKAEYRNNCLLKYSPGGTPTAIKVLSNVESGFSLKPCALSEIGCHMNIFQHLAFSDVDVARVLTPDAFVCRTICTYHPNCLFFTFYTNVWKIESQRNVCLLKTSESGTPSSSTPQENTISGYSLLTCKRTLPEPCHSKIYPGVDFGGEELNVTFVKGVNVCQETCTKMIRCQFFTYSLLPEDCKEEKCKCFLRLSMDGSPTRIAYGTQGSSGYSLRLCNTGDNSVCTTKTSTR
T1 sequence (P03951 388-625 limits assumed): as the sequence (P03951 388-625 limits assumed) above
T1 sequence (P03951 19-387 partner limits assumed): as the sequence (P03951 19-387 partner limits assumed) above

Structure (SMILES): CC(C)[C@@H]1/C=C/C[C@H](NC(=O)OC(C)(C)C)c2cc(ccn2)-c2c(cnn2C)NC1=O
ring closure, yield after HPLC [1]: 16.8%

Structure (SMILES): CC(C)[C@H]1/C=C/C[C@H](NC(=O)OC(C)(C)C)c2cc(ccn2)-c2c(cnn2C)NC1=O
ring closure, yield after HPLC [1]: 16.8%

Structure (SMILES): C[C@@H]1/C=C/C[C@H](NC(=O)OC(C)(C)C)c2cc(ccn2)-c2c(cnn2C(F)F)NC1=O
ring closure, isolated yield ([2]; from C=CC[C@H](NC(=O)OC(C)(C)C)c1cc(-c2c(NC(=O)[C@H](C)C=C)cnn2C(F)F)ccn1, Grubbs II (25 mol%), EtOAc, 5.0 mM): 76%

Structure (SMILES): C[C@@H]1/C=C/C[C@H](NC(=O)OC(C)(C)C)c2cc(ccn2)-c2c(cnn2C)NC1=O
ring closure, isolated yield ([2]; from C=CC[C@H](NC(=O)OC(C)(C)C)c1cc(-c2c(NC(=O)[C@H](C)C=C)cnn2C)ccn1, Grubbs II (40 mol%), DCE, 78.3 mM, 120.0 °C): 20%

Structure (SMILES): C[C@@H]1/C=C/C[C@H](NC(=O)OC(C)(C)C)c2cccc(n2)-c2c(cnn2C)NC1=O
ring closure, isolated yield ([2]; from C=CC[C@H](NC(=O)OC(C)(C)C)c1cccc(-c2c(NC(=O)[C@H](C)C=C)cnn2C)n1, Grubbs II (40 mol%), EtOAc, 13.2 mM, 80.0 °C): 66%

Structure (SMILES): C[C@@H]1/C=C/C[C@H](NC(=O)OCc2ccccc2)c2cc(ccn2)-c2c(cnn2CCOC(C)(C)C)NC1=O
ring closure, isolated yield ([2]; from C=CC[C@H](NC(=O)OCc1ccccc1)c1cc(-c2c(NC(=O)[C@H](C)C=C)cnn2CCOC(C)(C)C)ccn1, Grubbs II (40 mol%), DCE, 35.6 mM, 120.0 °C, 0.5 h): 38%

Ki [3]: 0.00071 µM
Ki [4]: 0.0526 µM
Structure (SMILES): [2H]C([2H])([2H])n1ncc2c1-c1cc(ccn1)[C@@H](n1ncc(-c3cc(Cl)ccc3-n3cc(C(F)(F)F)nn3)cc1=O)CCC[C@@H](C)C(=O)N2 [Example 64, (9R,13S)-13-(4-{5-Chloro-2-[4-(trifluoromethyl)-1H-1,2,3-triazol-1-yl]phenyl}-6-oxo-1,6-dihydropyridazin-1-yl)-3-(^2H3)methyl-9-methyl-3,4,7,17-tetraazatricyclo[12.3.1.0^2,6]octadeca-1(18),2(6),4,14,16-pentaen-8-one]

Structure (SMILES): C[C@@H]1CCC[C@H](N2CCC(c3c(F)ccc(Cl)c3F)=CC2=O)c2cc(ccn2)-c2cn[nH]c2NC1=O [Example 221]
Ki (factor XIa): 1.32 µM
